pEC50: −log10 of the molar value.
Legend:
human TGR5 receptor = target: T1, human TGR5 receptor (Homo sapiens, UniProt Q8TDU6); assay: Human TGR5 cAMP production assay; assay type: cell-based; conditions: human TGR5, luminescent cAMP assay; coded A-D; read-out: Human TGR5 Lum. cAMP Activity (EC50)
T1 construct: host or cells: CHO-K1 (hTGR5-CHO cells)
T1 sequence (Q8TDU6 1-330): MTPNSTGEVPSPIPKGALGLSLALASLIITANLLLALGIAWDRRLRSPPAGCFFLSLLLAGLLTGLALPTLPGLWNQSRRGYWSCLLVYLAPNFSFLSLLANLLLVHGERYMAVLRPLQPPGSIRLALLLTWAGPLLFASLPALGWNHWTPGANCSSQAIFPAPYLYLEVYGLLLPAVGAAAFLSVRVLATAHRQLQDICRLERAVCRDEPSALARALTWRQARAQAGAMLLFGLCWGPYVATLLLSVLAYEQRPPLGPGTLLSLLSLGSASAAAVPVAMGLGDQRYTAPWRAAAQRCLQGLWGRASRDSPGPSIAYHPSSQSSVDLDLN
Method in brief: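 CHO-K1 cells stably expressing human TGR5, with IBMX and cAMP antibody, were exposed to half-log serially diluted compound for 1 h at room temperature. cAMP measured by enzyme-fragment complementation luminescence (XS+ kit) after overnight incubation; EC50 values reported.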

mouse TGR5 receptor = target: T2, mouse TGR5 receptor (Mus musculus, UniProt Q80SS6); assay: Mouse TGR5 cAMP production assay (HTRF, Cisbio cAMP HiRange); assay type: cell-based; conditions: HEK293-EBNA cells overexpressing mouse TGR5, HTRF cAMP HiRange; coded A-D
T2 construct: expressed in transfected cells; host or cells: HEK293-EBNA (293 c18, ATCC CRL10852), Hygromycin B selection
T2 sequence (Q80SS6 1-329): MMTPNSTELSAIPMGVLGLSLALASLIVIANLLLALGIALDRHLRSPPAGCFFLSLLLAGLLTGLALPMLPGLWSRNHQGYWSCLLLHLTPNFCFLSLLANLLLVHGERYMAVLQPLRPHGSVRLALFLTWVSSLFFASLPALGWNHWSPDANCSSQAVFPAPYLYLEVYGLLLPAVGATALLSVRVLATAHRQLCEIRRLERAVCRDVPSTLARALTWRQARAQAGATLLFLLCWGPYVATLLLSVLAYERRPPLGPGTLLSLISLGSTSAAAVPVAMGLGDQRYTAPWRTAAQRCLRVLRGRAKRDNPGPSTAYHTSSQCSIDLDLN
Method in brief: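 cAMP read by HTRF competition after 1 h room-temperature compound exposure of mouse TGR5-overexpressing HEK293-EBNA cells. Cells were suspended in serum-free DMEM containing 500 μM IBMX; compounds ran as 12-point half-log dilutions in duplicate; EC50 derived.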

Row | Compound | pEC50 (human TGR5 receptor) | pEC50 (mouse TGR5 receptor)
1 | Cc1cnccc1-c1cccc(C(C)(C)N(CCCC(=O)NCCNC(=O)OC(C)(C)C)S(=O)(=O)c2cccc(Cl)c2C)c1 [Compound 20AV, tert-butyl (2-(4-(3-chloro-2-methyl-N-(2-(3-(3-methylpyridin-4-yl)phenyl)propan-2-yl)phenylsulfonamido)butanamido)ethyl)carbamate] | > 7.00 | 6.00 to 7.00
2 | Cc1cnccc1-c1cccc([C@H](C)N(CCCC(=O)NCCS(=O)(=O)NCC(=O)O)S(=O)(=O)c2ccccc2C)c1 [Compound 20AX, (S)-2-(4-(2-methyl-N-(1-(3-(3-methylpyridin-4-yl)phenyl)ethyl)phenylsulfonamido)butanamidoethylsulfonamido)acetate] | > 7.00 | 6.00 to 7.00
3 | Cc1cnccc1-c1cccc([C@H](C)N(CCCC(N)=O)S(=O)(=O)c2cccc(Cl)c2C)c1 [Compound 20AY, (S)-4-(3-Chloro-2-methyl-N-(1-(3-(3-methylpyridin-4-yl)phenyl)ethyl)phenylsulfonamido)butanamide] | > 7.00 | 6.00 to 7.00
4 | Cc1cnccc1-c1cccc(C(C)N(CCCC(=O)NCCSO)S(=O)(=O)c2ccccc2C(F)(F)F)c1 (stereo not drawn) [Compound 20BC, N-(2-(hydroxythio)ethyl)-4-(N-(1-(3-(3-methylpyridin-4-yl)phenyl)ethyl)-2-(trifluoromethyl)phenylsulfonamido)butanamide] | > 7.00 | 6.00 to 7.00
5 | Cc1cnccc1-c1cccc(C(C)N(CCCC(=O)NCCSO)S(=O)(=O)c2cccc(C(F)(F)F)c2)c1 (stereo not drawn) [Compound 20BD, N-(2-(hydroxythio)ethyl)-4-(N-(1-(3-(3-methylpyridin-4-yl)phenyl)ethyl)-3-(trifluoromethyl)phenylsulfonamido)butanamide] | 6.00 to 7.00 | 6.00 to 7.00
6 | CCc1cnccc1-c1cccc([C@H](C)N(CCCC(=O)NCS(=O)(=O)O)S(=O)(=O)c2ccccc2C(F)(F)F)c1 [Compound 20BE, (S)-(4-(N-(1-(3-(3-ethylpyridin-4-yl)phenyl)ethyl)-2-(trifluoromethyl)phenylsulfonamido)butanamido)methanesulfonic acid] | > 7.00 | > 7.00
7 | Cc1cnccc1-c1cccc([C@H](C)N(CCCC(=O)NCCS(=O)(=O)NCCC(=O)O)S(=O)(=O)c2ccccc2C(F)(F)F)c1 [Compound 20BI] | > 7.00 | > 7.00
8 | Cc1cnccc1-c1cccc([C@H](C)N(CCCC(=O)NCCS(=O)(=O)NCC(=O)O)S(=O)(=O)c2ccccc2C(F)(F)F)c1 [Compound 20BJ] | > 7.00 | > 7.00
9 | Cc1c(Cl)cccc1S(=O)(=O)N(CCCC(=O)NCCS(=O)(=O)O)[C@@H](C)c1cccc(-c2ccnnc2)c1 [Compound 20BO, (S)-2-(4-(3-chloro-2-methyl-N-(1-(3-(pyridazin-4-yl)phenyl)ethyl)phenylsulfonamido)butanamido)ethanesulfonic acid] | 6.00 to 7.00 | < 4.52
10 | Cc1cnsc1-c1cccc([C@H](C)N(CCCC(=O)NCCS(=O)(=O)O)S(=O)(=O)c2cccc(Cl)c2C)c1 [Compound 20BP, (S)-2-(4-(3-chloro-2-methyl-N-(1-(3-(4-methylisothiazol-5-yl)phenyl)ethyl)phenylsulfonamido)butanamido)ethanesulfonic acid] | 6.00 to 7.00 | 4.52 to 6.00
11 | Cc1cnccc1-c1cccc([C@H](CCCC(=O)NCS(=O)(=O)O)NS(=O)(=O)c2ccccc2C(F)(F)F)c1 [Compound 20BR, (S)-(5-(3-(3-methylpyridin-4-yl)phenyl)-5-(2-(trifluoromethyl)phenylsulfonamido)pentanamido)methanesulfonic acid] | 6.00 to 7.00 | 6.00 to 7.00
12 | Cc1c(Cl)cccc1S(=O)(=O)N(CCCC(=O)NCCS(=O)(=O)NCC(=O)O)[C@@H](C)c1cccc(-c2ccncc2CO)c1 [Compound 20BS, (S)-2-(4-(3-chloro-N-(1-(3-(3-(hydroxymethyl)pyridin-4-yl)phenyl)ethyl)-2-methylphenylsulfonamido)butanamido)ethanesulfonamido acetic acid] | 6.00 to 7.00 | > 7.00
13 | Cc1cnccc1-c1cccc(CCN(CCCC(=O)NCCS(=O)(=O)O)S(=O)(=O)c2cccc(Cl)c2C)c1 [Compound 20BT, 2-(4-(3-chloro-2-methyl-N-(3-(3-methylpyridin-4-yl)phenethyl)phenylsulfonamido)butanamido)ethanesulfonic acid] | 6.00 to 7.00 | 4.52 to 6.00
14 | Cc1cnccc1-c1cccc([C@H](C)N(CCC(=O)NCCS(=O)(=O)O)S(=O)(=O)c2cccc(Cl)c2C)c1 [Compound 20BV, (S)-2-(3-(3-chloro-2-methyl-N-(1-(3-(3-methylpyridin-4-yl)phenyl)ethyl)phenylsulfonamido)propanamido)ethanesulfonic acid] | 6.00 to 7.00 | > 7.00
15 | Cc1cnccc1-c1cccc([C@H](C)N(CCCC(=O)NS(=O)(=O)CCC(=O)O)S(=O)(=O)c2cccc(Cl)c2C)c1 [Compound 20BW, (S)-3-(N-(4-(3-chloro-2-methyl-N-(1-(3-(3-methylpyridin-4-yl)phenyl)ethyl)phenylsulfonamido)butanoyl)sulfamoyl)propanoic acid] | 6.00 to 7.00 | > 7.00
16 | Cc1cnccc1-c1cccc([C@H](C)N(CCCC(=O)NCCN)S(=O)(=O)c2ccccc2C(F)(F)F)c1 [Compound 20BX] | > 7.00 | 6.00 to 7.00
17 | Cc1cnccc1-c1cccc(C(C)(C)N(CCCC(=O)NCCN)S(=O)(=O)c2cccc(Cl)c2C)c1 [Compound 21, N-(2-Aminoethyl)-4-(3-chloro-2-methyl-N-(2-(3-(3-methylpyridin-4-yl)phenyl)propan-2-yl)-phenylsulfonamido)butanamide] | > 7.00 | 6.00 to 7.00
18 | Cc1cnccc1-c1cccc(C(C)(C)N(CCCC(=O)N[C@@H](CS(=O)(=O)O)C(=O)O)S(=O)(=O)c2cccc(Cl)c2C)c1 [Compound 21AA, (R)-2-(4-(3-chloro-2-methyl-N-(2-(3-(3-methylpyridin-4-yl)phenyl)propan-2-yl)phenylsulfonamido)butanamido)-3-sulfopropanoic acid] | 6.00 to 7.00 | > 7.00
19 | Cc1cnccc1-c1cccc(C(C)(C)N(CCCC(=O)NCCN(C)C)S(=O)(=O)c2cccc(Cl)c2C)c1 [Compound 21AD, 4-(3-chloro-2-methyl-N-(2-(3-(3-methylpyridin-4-yl)phenyl)propan-2-yl)phenylsulfonamido)-N-(2-(dimethyl-amino)ethyl)butanamide] | > 7.00 | 6.00 to 7.00
20 | Cc1cnccc1-c1cccc(C(C)(C)N(CCCC(=O)N[C@H](C)C(=O)O)S(=O)(=O)c2cccc(Cl)c2C)c1 [Compound 21AE, (R)-2-(4-(3-chloro-2-methyl-N-(2-(3-(3-methylpyridin-4-yl)phenyl)propan-2-yl)phenylsulfonamido)butanamido)propanoic acid] | > 7.00 | > 7.00
21 | Cc1cnccc1-c1cccc(C(C)(C)N(CCCC(=O)N[C@@H](C)C(=O)O)S(=O)(=O)c2cccc(Cl)c2C)c1 [Compound 21AF, (S)-2-(4-(3-chloro-2-methyl-N-(2-(3-(3-methylpyridin-4-yl)phenyl)propan-2-yl)phenylsulfonamido)butanamido)propanoic acid] | > 7.00 | > 7.00
22 | Cc1cnccc1-c1cccc([C@H](C)N(CCCC(=O)NCCC(=O)O)S(=O)(=O)c2cccc(Cl)c2C)c1 [Compound 21AH, (S)-3-(4-(3-chloro-2-methyl-N-(1-(3-(3-methylpyridin-4-yl)phenyl)ethyl)phenylsulfonamido)butanamido)propanoic acid] | > 7.00 | 6.00 to 7.00
23 | Cc1cnccc1-c1cccc([C@H](C)N(CCCC(=O)N[C@@H](CO)C(=O)O)S(=O)(=O)c2cccc(Cl)c2C)c1 [Compound 21AI, (S)-2-(4-(3-chloro-2-methyl-N-((S)-1-(3-(3-methylpyridin-4-yl)phenyl)ethyl)phenylsulfonamido)butanamido)-3-hydroxypropanoic acid] | > 7.00 | 6.00 to 7.00
24 | Cc1cnccc1-c1cccc([C@H](C)N(CCCC(=O)N2CCC[C@H]2C(=O)O)S(=O)(=O)c2cccc(Cl)c2C)c1 [Compound 21AJ, (S)-1-(4-(3-chloro-2-methyl-N-((S)-1-(3-(3-methylpyridin-4-yl)phenyl)ethyl)phenylsulfonamido)butanoyl)pyrrolidine-2-carboxylic acid] | > 7.00 | 6.00 to 7.00
